Measurements published in US11028088B2, “Modulators of BTK proteolysis and methods of use” (Yale University, priority 2018, dated 2021).
Read-outs that look alike come from different tables or passages of the source.

Tests used:
HER3 = molecular target: T1, HER3 (Homo sapiens, UniProt P21860); assay: HER3/ERBB3 degradation (western blot, OVCAR8 cells); type: cell-based
T1 construct: endogenous in cells; host or cells: OVCAR8
Protocol: FIG. 10 illustrates a Western blot of Compound 102-related degradation of ERBB3.
In various embodiments, treatment with PROTAC was performed in one of two ways: 1) For experiments involving >16 h exposure to compound, a 1000× stock was added to cells followed by gentle agitation; 2) For shorter treatments, a 2× stock was added to an equal volume of cells to ensure uniform drug exposure. For immortalized cell lines, 2×10^6 cells per treatment condition were collected and washed once with ice cold PBS (IX), followed by lysis in buffer containing 20 mM Tris [pH 8.0], 0.25% sodium deoxycholate, 1% Triton X-100, supplemented with protease (Roche) and phosphatase inhibitors (10 mM NaF, 2 mM Na3VO4, 10 mM β-glycerophosphate, 10 mM Na-pyrophosphate). Lysates were spun at 15,000×g for 10 min at 4° C. and supernatant was quantified for total protein content using the Pierce BCA Protein Assay (Thermo Fisher Scientific). 30 μg of protein was loaded onto 12% SDS-PAGE gels or 4-15% Mini-PROTEAN TGX precast gradient gels (Bio-Rad), transferred onto nitrocellulose membranes, and probed with the specified primary antibodies overnight with rocking at 4° C. in 1×TBS-T containing 5% non-fat milk.
(§1) Either anti-rabbit or anti-mouse HRP-conjugated secondary antibodies (Pierce) were incubated with the membranes for 1 h at room temperature at 1:10,000 dilutions in 5% non-fat milk in IX TBS-T. Imaging was performed using the ECL Prime chemiluminescent western blot detection reagents (Amersham) followed by visualization with the Bio-Rad ChemiDoc imaging instrument. All western blots were subsequently processed and quantified using the accompanying Bio-Rad Image Lab software. Primary antibodies used were: Anti-actin antibody (Cat. #MA 1-744) purchased from ThermoFisher Scientific; anti-BTK (Cat. #8547), anti-pBTK (Y223, Cat. #5082), anti-ITK (Cat. #2380), anti-GAPDH (Cat. #5179), anti-IKZF1 (Cat. #9034), and anti-IKZF3 (Cat. #15103) antibodies purchased from Cell Signaling Technology. All antibodies were used at 1:1,000 dilutions in 5% non-fat milk in 1×TBS-Tween (TBS-T) or Blotto blocker (Thermo Scientific) unless otherwise noted in supplier specifications.

BTK = BTK (Homo sapiens, UniProt Q06187); assay: BTK degradation in NAMALWA cells (immunoblot); type: cell-based; set-up: host or cells: NAMALWA; conditions: for ability to degrade BTK: dose escalation; for DC50: concentration needed to degrade 50% of the total pool of BTK; for Max: maximal BTK degradation
BTK, sequence (Q06187 whole entry): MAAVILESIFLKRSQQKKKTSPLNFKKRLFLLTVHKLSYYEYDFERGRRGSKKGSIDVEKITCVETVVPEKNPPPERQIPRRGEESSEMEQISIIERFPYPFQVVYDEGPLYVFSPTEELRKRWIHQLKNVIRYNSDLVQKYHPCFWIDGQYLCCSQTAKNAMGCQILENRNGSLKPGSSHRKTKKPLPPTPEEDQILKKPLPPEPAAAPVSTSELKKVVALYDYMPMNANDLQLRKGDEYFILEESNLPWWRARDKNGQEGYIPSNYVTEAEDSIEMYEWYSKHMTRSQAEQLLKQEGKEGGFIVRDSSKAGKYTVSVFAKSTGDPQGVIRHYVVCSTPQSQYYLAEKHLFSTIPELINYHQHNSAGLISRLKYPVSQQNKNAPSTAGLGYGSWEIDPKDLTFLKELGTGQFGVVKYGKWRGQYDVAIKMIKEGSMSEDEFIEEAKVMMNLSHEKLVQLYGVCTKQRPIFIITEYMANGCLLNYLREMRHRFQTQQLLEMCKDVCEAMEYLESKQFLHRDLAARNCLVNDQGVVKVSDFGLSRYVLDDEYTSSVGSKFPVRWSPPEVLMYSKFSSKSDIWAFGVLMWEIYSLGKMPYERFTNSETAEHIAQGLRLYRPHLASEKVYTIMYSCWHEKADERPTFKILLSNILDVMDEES
Protocol: NAMALWA and Jurkat cell lines were purchased from ATCC and cultured according to supplier guidelines at 37° C. […] Wild-type and C481S BTK XLA cell lines were cultured as previously described (39). Written, informed consent was obtained prior to the collection of cells from CLL patients using the IWCLL2008 criteria. Isolation of mononuclear cells from peripheral blood was prepared using density gradient centrifugation. B-cells were then negatively selected ([…] Technologies). […] They were maintained at 37° C. in 5% CO2.
Lysates were spun at 15,000×g for 10 min at 4° C. and supernatant was quantified for total protein content using the Pierce BCA Protein Assay (Thermo Fisher Scientific).
as §1, with “Primary antibodies used were: Anti-actin antibody (Cat. #MA 1-744) purchased from ThermoFisher Scientific; anti-BTK (Cat. #8547), anti-pBTK (Y223, Cat. #5082), anti-ITK (Cat. #2380), anti-GAPDH (Cat. #5179), anti-IKZF1 (Cat. #9034), and anti-IKZF3 (Cat. #15103) antibodies purchased from Cell Signaling Technology.” left out

T1 sequence (P21860 20-1342): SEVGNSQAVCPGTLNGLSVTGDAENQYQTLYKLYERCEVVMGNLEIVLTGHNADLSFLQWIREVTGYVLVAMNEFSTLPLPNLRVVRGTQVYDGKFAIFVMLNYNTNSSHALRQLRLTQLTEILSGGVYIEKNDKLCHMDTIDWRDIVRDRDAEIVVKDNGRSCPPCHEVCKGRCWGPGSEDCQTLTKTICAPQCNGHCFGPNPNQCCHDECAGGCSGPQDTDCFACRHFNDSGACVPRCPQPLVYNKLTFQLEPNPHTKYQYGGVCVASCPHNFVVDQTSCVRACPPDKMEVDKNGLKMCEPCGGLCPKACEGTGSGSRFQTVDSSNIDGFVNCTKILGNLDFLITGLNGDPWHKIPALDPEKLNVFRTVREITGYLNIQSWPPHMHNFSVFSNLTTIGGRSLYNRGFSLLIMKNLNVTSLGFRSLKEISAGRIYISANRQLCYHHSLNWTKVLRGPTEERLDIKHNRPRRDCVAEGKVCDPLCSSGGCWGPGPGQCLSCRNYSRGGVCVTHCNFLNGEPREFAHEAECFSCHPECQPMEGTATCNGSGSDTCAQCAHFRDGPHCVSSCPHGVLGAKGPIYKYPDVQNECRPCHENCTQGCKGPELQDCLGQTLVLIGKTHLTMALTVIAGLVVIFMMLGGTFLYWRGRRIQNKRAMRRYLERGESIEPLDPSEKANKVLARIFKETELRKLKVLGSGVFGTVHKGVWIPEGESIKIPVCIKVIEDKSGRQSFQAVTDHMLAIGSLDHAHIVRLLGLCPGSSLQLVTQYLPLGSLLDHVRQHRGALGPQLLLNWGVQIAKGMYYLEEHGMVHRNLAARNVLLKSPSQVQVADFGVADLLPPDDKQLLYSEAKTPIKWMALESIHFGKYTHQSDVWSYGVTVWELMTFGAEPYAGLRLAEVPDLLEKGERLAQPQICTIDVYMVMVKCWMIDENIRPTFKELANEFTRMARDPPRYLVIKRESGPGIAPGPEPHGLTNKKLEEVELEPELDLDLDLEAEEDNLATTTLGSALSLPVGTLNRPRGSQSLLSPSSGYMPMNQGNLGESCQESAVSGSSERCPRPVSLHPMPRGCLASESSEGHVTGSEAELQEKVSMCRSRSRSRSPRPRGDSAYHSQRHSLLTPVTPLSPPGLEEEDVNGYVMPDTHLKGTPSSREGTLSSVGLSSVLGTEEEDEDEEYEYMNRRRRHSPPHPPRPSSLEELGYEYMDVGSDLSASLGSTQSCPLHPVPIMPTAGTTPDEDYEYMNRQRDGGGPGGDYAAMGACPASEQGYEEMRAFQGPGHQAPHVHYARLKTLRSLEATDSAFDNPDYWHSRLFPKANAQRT

HER3 Degradation (HER3)	SMILES	DC50 (BTK; NAMALWA cells, read-out: DC50)	further results
No	Nc1ncnc2c1c(-c1ccc(Oc3ccccc3)cc1)nn2C1CCN(CCOCC(=O)Nc2cccc3c2C(=O)N(C2CCC(=O)NC2=O)C3=O)CC1 (stereo not shown) [Compound 100, 2-(2-(4-(4-amino-3-(4-phenoxyphenyl)-1H-pyrazolo[3,4-d]pyrimidin-1-yl)piperidin-1-yl)ethoxy)-N-(2-(2,6-dioxopiperidin-3-yl)-1,3-dioxoisoindolin-4-yl)acetamide]	–	ability to degrade BTK (BTK; NAMALWA cells, 24 h): inability to degrade BTK; DC50 (BTK; NAMALWA cells): No Degradation (n = 4)
No	Nc1ncnc2c1c(-c1ccc(Oc3ccccc3)cc1)nn2C1CCN(CCOCCOCC(=O)Nc2cccc3c2C(=O)N(C2CCC(=O)NC2=O)C3=O)CC1 (stereo not shown) [Compound 101, 2-(2-(2-(4-(4-amino-3-(4-phenoxyphenyl)-1H-pyrazolo[3,4-d]pyrimidin-1-yl)piperidin-1-yl)ethoxy)ethoxy)-N-(2-(2,6-dioxopiperidin-3-yl)-1,3-dioxoisoindolin-4-yl)acetamide]	–	ability to degrade BTK (BTK; NAMALWA cells, 24 h): inability to degrade BTK; DC50 (BTK; NAMALWA cells): No Degradation
No	Nc1ncnc2c1c(-c1ccc(Oc3ccccc3)cc1)nn2C1CCN(CCCOCCCOCCC(=O)Nc2cccc3c2C(=O)N(C2CCC(=O)NC2=O)C3=O)CC1 (stereo not shown) [Compound 103, 3-(3-(3-(4-(4-amino-3-(4-phenoxyphenyl)-1H-pyrazolo[3,4-d]pyrimidin-1-yl)piperidin-1-yl)propoxy)propoxy)-N-(2-(2,6-dioxopiperidin-3-yl)-1,3-dioxoisoindolin-4-yl)propanamide]	68.3 nM	Max (BTK; at 1.0 μM, NAMALWA cells): 95%
No	Nc1ncnc2c1c(-c1ccc(Oc3ccccc3)cc1)nn2C1CCN(CCCCCCOCCOCC(=O)Nc2cccc3c2C(=O)N(C2CCC(=O)NC2=O)C3=O)CC1 (stereo not shown) [Compound 104, 2-[2-[6-[4-[4-amino-3-(4-phenoxyphenyl)pyrazolo[3,4-d]pyrimidin-1-yl]-1-piperidyl]hexoxy]ethoxy]-N-[2-(2,6-dioxo-3-piperidyl)-1,3-dioxo-isoindolin-4-yl]acetamide]	80.6 nM	degradation of BTK at 1.0 μM (BTK; 1.0 μM, NAMALWA cells): nearly complete degradation; Max (BTK; at 1.0 μM, NAMALWA cells): 96%
No	C=CC(=O)Nc1cc(-c2nn(C3CCN(CCCCCCOCCOCCOCC(=O)N[C@H](C(=O)N4C[C@H](O)C[C@H]4C(=O)NCc4ccc(-c5scnc5C)cc4)C(C)(C)C)CC3)c3ncnc(N)c23)ccc1Oc1ccccc1 [Compound 123, (2S,4R)-1-((S)-19-(4-(3-(3-acrylamido-4-phenoxyphenyl)-4-amino-1H-pyrazolo[3,4-d]pyrimidin-1-yl)piperidin-1-yl)-2,2-dimethyl-5-oxo-7,10,13-trioxa-4-azanonadecanecarbonyl)-4-hydroxy-N-(4-(4-methylthiazol-5-yl)benzyl)pyrrolidine-2-carboxamide]	–	–
No	C=CC(=O)Nc1cc(-c2nn(C3CCN(CCCCCCOCCCCCOCC(=O)N[C@H](C(=O)N4C[C@H](O)C[C@H]4C(=O)NCc4ccc(-c5scnc5C)cc4)C(C)(C)C)CC3)c3ncnc(N)c23)ccc1Oc1ccccc1 [Compound 124, (2S,4R)-1-((S)-2-(2-(5-(6-(4-(3-(3-acrylamido-4-phenoxyphenyl)-4-amino-1H-pyrazolo[3,4-d]pyrimidin-1-yl)piperidin-1-yl)hexyloxy)pentyloxy)acetamido)-3,3-dimethylbutanoyl)-4-hydroxy-N-(4-(4-methylthiazol-5-yl)benzyl)pyrrolidine-2-carboxamide]	–	–
No	C=CC(=O)Nc1cc(-c2nn(C3CCN(CCCCCCOCCOCCOCCOCC(=O)N[C@H](C(=O)N4C[C@H](O)C[C@H]4C(=O)NCc4ccc(-c5scnc5C)cc4)C(C)(C)C)CC3)c3ncnc(N)c23)ccc1Oc1ccccc1 [Compound 125, (2S,4R)-1-((S)-22-(4-(3-(3-acrylamido-4-phenoxyphenyl)-4-amino-1H-pyrazolo[3,4-d]pyrimidin-1-yl)piperidin-1-yl)-2,2-dimethyl-5-oxo-7,10,13,16-tetraoxa-4-azadocosanecarbonyl)-4-hydroxy-N-(4-(4-methylthiazol-5-yl)benzyl)pyrrolidine-2-carboxamide]	–	–
No	C=CC(=O)Nc1cc(-c2nn(C3CCN(CCCCCCOCCOCCOCCOCCOCC(=O)N[C@H](C(=O)N4C[C@H](O)C[C@H]4C(=O)NCc4ccc(-c5scnc5C)cc4)C(C)(C)C)CC3)c3ncnc(N)c23)ccc1Oc1ccccc1 [Compound 126, (2S,4R)-1-((S)-25-(4-(3-(3-acrylamido-4-phenoxyphenyl)-4-amino-1H-pyrazolo[3,4-d]pyrimidin-1-yl)piperidin-1-yl)-2,2-dimethyl-5-oxo-7,10,13,16,19-pentaoxa-4-azapentacosanecarbonyl)-4-hydroxy-N-(4-(4-methylthiazol-5-yl)benzyl)pyrrolidine-2-carboxamide]	–	–
–	Cc1ncsc1-c1ccc(CNC(=O)[C@@H]2C[C@@H](O)CN2C(=O)[C@H](C(C)C)N2Cc3ccccc3C2=O)c(OCCCCOCCCCN2CCC(n3nc(-c4ccc(Oc5ccccc5)cc4)c4c(N)ncnc43)CC2)c1 [Compound 127, (2S,4R)—N-(2-(4-(4-(4-(4-amino-3-(4-phenoxyphenyl)-1H-pyrazolo[3,4-d]pyrimidin-1-yl)piperidin-1-yl)butoxy)butoxy)-4-(4-methylthiazol-5-yl)benzyl)-4-hydroxy-1-((S)-3-methyl-2-(1-oxoisoindolin-2-yl)butanoyl)pyrrolidine-2-carboxamide]	162 nM	Max (BTK; concentration not given): 50%
–	CN1C(=O)CCC(N2C(=O)c3ccc(NC(=O)COCCOCCN4CCC(n5nc(-c6ccc(Oc7ccccc7)cc6)c6c(N)ncnc65)CC4)cc3C2=O)C1=O (stereo not shown) [Compound 130, 2-(2-(2-(4-(4-amino-3-(4-phenoxyphenyl)-1H-pyrazolo[3,4-d]pyrimidin-1-yl)piperidin-1-yl)ethoxy)ethoxy)-N-(2-(1-methyl-2,6-dioxopiperidin-3-yl)-1,3-dioxoisoindolin-5-yl)acetamide]	–	ability to degrade BTK (BTK; NAMALWA cells, 24 h): neither ibrutinib nor Compound 130 were able to induce degradation of BTK
–	Nc1ncnc2c1c(-c1ccc(Oc3ccccc3)cc1)nn2C1CCN(CCOCCOCCOc2ccc3c(c2)C(=O)N(C2CCC(=O)NC2=O)C3=O)CC1 (stereo not shown) [Compound 131, 5-(2-(2-(2-(4-(4-amino-3-(4-phenoxyphenyl)-1H-pyrazolo[3,4-d]pyrimidin-1-yl)piperidin-1-yl)ethoxy)ethoxy)ethoxy)-2-(2,6-dioxopiperidin-3-yl)isoindoline-1,3-dione]	13 nM	Max (BTK; concentration not given): >99%
–	Nc1ncnc2c1c(-c1ccc(Oc3ccccc3)cc1)nn2C1CCN(CCOCCOCCOc2ccc3c(c2)CN(C2CCC(=O)NC2=O)C3=O)CC1 (stereo not shown) [Compound 135, 3-(5-(2-(2-(2-(4-(4-amino-3-(4-phenoxyphenyl)-1H-pyrazolo[3,4-d]pyrimidin-1-yl)piperidin-1-yl)ethoxy)ethoxy)ethoxy)-1-oxoisoindolin-2-yl)piperidine-2,6-dione]	7 nM	Max (BTK; concentration not given): >99%

SMILES	HER3 Degradation (HER3)	DC50 (BTK; NAMALWA cells, read-out: DC50)	further results
Nc1ncnc2c1c(-c1ccc(Oc3ccccc3)cc1)nn2C1CCN(CCCCOCCCCOCC(=O)Nc2ccc3c(c2)C(=O)N(C2CCC(=O)NC2=O)C3=O)CC1 (stereo not shown) [Compound 105, 2-[4-[4-[4-[4-amino-3-(4-phenoxyphenyl)pyrazolo[3,4-d]pyrimidin-1-yl]-1-piperidyl]butoxy]butoxy]-N-[2-(2,6-dioxo-3-piperidyl)-1,3-dioxo-isoindolin-5-yl]acetamide]	No	11.6 nM	Max (BTK; at 250 nM, NAMALWA cells): >99%; hook-effect (increase in BTK levels at high PROTAC concentration) (BTK; up to 2.5 μM, NAMALWA cells, 24 h): (No
